Source: patent publication US11667667B2, “Steroid derivative FXR agonist” (Chia Tai Tianqing Pharmaceutical Group Co., Ltd., priority 2016, dated 2023)

Legend:
[1] = molecular target: T1, Glutathione-S-transferase-labeled FXR human protein (Homo sapiens, UniProt Q96RI1); assay: FXR biochemical experiment (AlphaScreen, coactivator recruitment); conditions: for EC50: AlphaScreen, GST-FXR human protein + biotin-labeled steroid receptor coactivator, read-out: FXR enzyme activity EC50; for Emax: ratio of highest signal of the compound to that of the reference compound, read-out: FXR enzyme activity Efficacy
T1 construct: purchased Invitrogen
T1 sequence (Q96RI1 1-486): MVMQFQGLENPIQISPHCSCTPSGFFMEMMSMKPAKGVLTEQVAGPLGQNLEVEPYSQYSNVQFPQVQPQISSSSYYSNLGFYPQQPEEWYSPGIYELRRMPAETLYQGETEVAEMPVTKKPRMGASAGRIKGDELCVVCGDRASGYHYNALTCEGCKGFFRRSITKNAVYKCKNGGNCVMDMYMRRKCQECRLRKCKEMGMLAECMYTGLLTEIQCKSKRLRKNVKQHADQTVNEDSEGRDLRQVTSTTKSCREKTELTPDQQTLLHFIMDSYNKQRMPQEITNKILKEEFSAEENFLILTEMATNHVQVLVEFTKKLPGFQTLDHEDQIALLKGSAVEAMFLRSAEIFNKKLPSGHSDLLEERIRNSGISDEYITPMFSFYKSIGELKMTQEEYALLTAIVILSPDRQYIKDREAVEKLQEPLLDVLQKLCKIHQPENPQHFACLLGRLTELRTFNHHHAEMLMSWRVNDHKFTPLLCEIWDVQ
Protocol: FXR Biochemical Experiment Experimental Purpose: The activation effect of the compound on FXR binding reaction was detected by AlphaScreen. […] Protein: Glutathione-S-transferase-labeled FXR human protein (Invitrogen) 2. Co-activator: Biotin-labeled steroid receptor coactivator (Anaspec) 3. […] Compound Dilution: The compound to be tested was prepared as a 40 μM DMSO solution, and then diluted 3-fold to 10 concentration points. The reference compound was prepared as a 400 μM DMSO solution, and then diluted 1.5-fold to 10 concentration points. The diluted DMSO solution was added to the wells of a 384-well plate in a volume of 150 nL per well. 2. […] 4. […] The operation during the experimental process was protected from light. The incubation was performed for 1 hour at room temperature. 5. […] The operation during the experimental process was protected from light. The incubation was performed for 1 hour at room temperature. 6. EC50 test: Envision was used with excitation at 680 nm to read the […] signals at 520-620 nm. 7. Analytical data: The data were analyzed via using Prism 5.0, and the EC50 values of the activation effects of the compounds were calculated.

[2] = Liver-blood ratio experiment of mice via cassette dosing; type: in vivo, mice (C57BL/6J); conditions: oral cassette 2 mg/kg
Protocol: Liver-Blood Ratio Experiment of Mice Via Cassette Dosing
6 male mice (C57BL/6J) were grouped as an oral administration group. 5 kinds of the developed drugs were contained in the formulation, and intragastrical administration was performed at a dose of 2 mg/kg/compound (the vehicle was 0.5% HPMC aqueous solution). The five compounds were firstly and respectively dissolved in the vehicle, and sonicated or whirled to form a 1 mg/mL solution (clear solution or suspension), respectively; and then the solutions of the five compound were mixed in equal volumes (1:1:1:1:1, v:v:v:v:v) into a glass bottle. After intragastrical oral administration, plasma and liver tissue samples were collected from 3 animals at 0.5 h after administration; corresponding samples were collected from the other 3 animals at 3 h after administration. After collection, the liver tissue was homogenized by using ice-cold homogenization buffer (methanol:15 mM PBS buffer (pH 7.4)=1:2, v:v) based on the ratio of liver weight:homogenization buffer volume=1:3. Plasma and liver tissue samples were analyzed by using a five-in-one LC-MS/MS analysis method developed in advance. The concentrations of plasma and liver tissue homogenate were obtained, and the concentration ratios of liver tissue to plasma were calculated by using Excel.

| SMILES | EC50 [1] [µM] | Emax [1] [%] | also measured |
| --- | --- | --- | --- |
| CC[C@H]1[C@@H](O)[C@@H]2[C@H](CC[C@]3(C)[C@@H]([C@H](C)CCN4CCC[C@@H]4C(=O)O)CC[C@@H]23)[C@@]2(C)CC[C@@H](O)C[C@@H]12 [Example 2] | 1.46 | 114 |  |
| CC[C@H]1[C@@H](O)[C@@H]2[C@H](CC[C@]3(C)[C@@H]([C@H](C)CCN4CCC[C@H]4C(=O)O)CC[C@@H]23)[C@@]2(C)CC[C@@H](O)C[C@@H]12 [Example 3] | 2.62 | 106 |  |
| CC[C@H]1[C@@H](O)[C@@H]2[C@H](CC[C@]3(C)[C@@H]([C@H](C)CCOc4ccccc4C(=O)O)CC[C@@H]23)[C@@]2(C)CC[C@@H](O)C[C@@H]12 [Example 8] |  | 264 |  |
| CC[C@H]1[C@@H](O)[C@@H]2[C@H](CC[C@]3(C)[C@@H]([C@H](C)CCOc4cnc(C(=O)O)nc4)CC[C@@H]23)[C@@]2(C)CC[C@@H](O)C[C@@H]12 [Example 12] | 0.07 | 240 |  |
| CC[C@H]1[C@@H](O)[C@@H]2[C@H](CC[C@]3(C)[C@@H]([C@H](C)CCOc4cnccc4C(=O)O)CC[C@@H]23)[C@@]2(C)CC[C@@H](O)C[C@@H]12 [Example 13] | 0.39 | 270 |  |
| CC[C@H]1[C@@H](OC)[C@@H]2[C@H](CC[C@]3(C)[C@@H]([C@H](C)CCOCC45CC(C(=O)O)(C4)C5)CC[C@@H]23)[C@@]2(C)CC[C@@H](O)C[C@@H]12 [Example 14] | 0.73 | 195 |  |
| CC[C@H]1[C@@H](O)[C@@H]2[C@H](CC[C@]3(C)[C@@H]([C@H](C)CCOc4cccnc4C(=O)O)CC[C@@H]23)[C@@]2(C)CC[C@@H](O)C[C@@H]12 [Example 16] | 0.31 | 247 |  |
| CC[C@H]1[C@@H](O)[C@@H]2[C@H](CC[C@]3(C)[C@@H]([C@H](C)CCCOc4ccc(C(=O)O)cn4)CC[C@@H]23)[C@@]2(C)CC[C@@H](O)C[C@@H]12 [Example 18] | 0.07 | 187 |  |
| CC[C@H]1[C@@H](O)[C@@H]2[C@H](CC[C@]3(C)[C@@H]([C@H](C)/C=C/c4cccc(C(=O)O)c4)CC[C@@H]23)[C@@]2(C)CC[C@@H](O)C[C@@H]12 [Example 20] | 0.06 | 287 |  |
| CC[C@H]1[C@@H](O)[C@@H]2[C@H](CC[C@]3(C)[C@@H]([C@H](C)CCOc4ncc(C(=O)O)cc4F)CC[C@@H]23)[C@@]2(C)CC[C@@H](O)C[C@@H]12 [Example 24] |  | 138 |  |
| CC[C@H]1[C@@H](O)[C@@H]2[C@H](CC[C@]3(C)[C@@H]([C@H](C)CCOc4cccc(C(=O)O)n4)CC[C@@H]23)[C@@]2(C)CC[C@@H](O)C[C@@H]12 [Example 25] | 0.011 | 233 |  |
| CC[C@H]1[C@@H](O)[C@@H]2[C@H](CC[C@]3(C)[C@@H]([C@H](C)CCOc4ccc(C(=O)NS(C)(=O)=O)cn4)CC[C@@H]23)[C@@]2(C)CC[C@@H](O)C[C@@H]12 [Example 27] | 0.006 | 212 |  |
| CC[C@H]1[C@@H](O)[C@@H]2[C@H](CC[C@]3(C)[C@@H]([C@H](C)CCOc4ccc(C(=O)NS(=O)(=O)C5CC5)cn4)CC[C@@H]23)[C@@]2(C)CC[C@@H](O)C[C@@H]12 [Example 28] | 0.007 | 219 |  |
| CC[C@H]1[C@@H](O)[C@@H]2[C@H](CC[C@]3(C)[C@@H]([C@H](C)CCOc4ccc(C(=O)NS(=O)(=O)C(C)(C)C)cn4)CC[C@@H]23)[C@@]2(C)CC[C@@H](O)C[C@@H]12 [Example 29] | 0.012 | 190 |  |
| CC[C@H]1[C@@H](O)[C@@H]2[C@H](CC[C@]3(C)[C@@H]([C@H](C)CCOc4ccc(C(=O)NS(=O)(=O)C(C)C)cn4)CC[C@@H]23)[C@@]2(C)CC[C@@H](O)C[C@@H]12 [Example 30] | 0.056 | 150 |  |
| CC[C@H]1[C@@H](O)[C@@H]2[C@H](CC[C@]3(C)[C@@H]([C@H](C)CCOc4ccc(C(=O)NS(=O)(=O)c5ccccc5)cn4)CC[C@@H]23)[C@@]2(C)CC[C@@H](O)C[C@@H]12 [Example 31] | 0.027 | 204 |  |
| CC[C@H]1[C@@H](O)[C@@H]2[C@H](CC[C@]3(C)[C@@H]([C@H](C)CCOc4ccc(C(=O)Nc5ccccc5)cn4)CC[C@@H]23)[C@@]2(C)CC[C@@H](O)C[C@@H]12 [Example 32] | 0.65 | 140 |  |
| CC[C@H]1[C@@H](O)[C@@H]2[C@H](CC[C@]3(C)[C@@H]([C@H](C)CCOc4ccc(C(=O)NC)cn4)CC[C@@H]23)[C@@]2(C)CC[C@@H](O)C[C@@H]12 [Example 33] | 0.141 | 194 |  |
| CC[C@H]1[C@@H](O)[C@@H]2[C@H](CC[C@]3(C)[C@@H]([C@H](C)CCOc4ccc(C(=O)NC5CC5)cn4)CC[C@@H]23)[C@@]2(C)CC[C@@H](O)C[C@@H]12 [Example 34] | 0.093 | 191 |  |
| CC[C@H]1[C@@H](O)[C@@H]2[C@H](CC[C@]3(C)[C@@H]([C@H](C)CCOc4ccc(C(=O)NCCS(=O)(=O)O)cn4)CC[C@@H]23)[C@@]2(C)CC[C@@H](O)C[C@@H]12 [Example 38] | 0.02 | 210 |  |
| CC[C@H]1[C@@H](O)[C@@H]2[C@H](CC[C@]3(C)[C@@H]([C@H](C)CCOc4ccc(C(=O)NCC(=O)O)cn4)CC[C@@H]23)[C@@]2(C)CC[C@@H](O)C[C@@H]12 [Example 39] | 0.02 | 205 |  |
| CC[C@H]1[C@@H](O)[C@@H]2[C@H](CC[C@]3(C)[C@@H]([C@H](C)CCCOc4ncc(C(=O)O)cc4Cl)CC[C@@H]23)[C@@]2(C)CC[C@@H](O)C[C@@H]12 [Example 40] | 0.045 | 197 |  |
| CC[C@H]1[C@@H](O)[C@@H]2[C@H](CC[C@]3(C)[C@@H]([C@H](C)CCOc4ccnc(C(=O)O)c4)CC[C@@H]23)[C@@]2(C)CC[C@@H](O)C[C@@H]12 [Example 41] | 0.08 | 127 |  |
| CC[C@H]1[C@@H](O)[C@@H]2[C@H](CC[C@]3(C)[C@@H]([C@H](C)CC(=O)Nc4cncc(C(=O)O)c4)CC[C@@H]23)[C@@]2(C)CC[C@@H](O)C[C@@H]12 [Example 42] | 1.43 | 121 |  |
| CC[C@H]1[C@@H](O)[C@@H]2[C@H](CC[C@]3(C)[C@@H]([C@H](C)CCNc4cncc(C(=O)O)c4)CC[C@@H]23)[C@@]2(C)CC[C@@H](O)C[C@@H]12 [Example 43] | 0.37 | 193 |  |
| CC[C@H]1[C@@H](O)[C@@H]2[C@H](CC[C@]3(C)[C@@H]([C@H](C)CCOc4ccc(C(=O)OC)cn4)CC[C@@H]23)[C@@]2(C)CC[C@@H](O)C[C@@H]12 [Example 44] | 0.33 | 140 |  |
| CC[C@H]1[C@@H](O)[C@@H]2[C@H](CC[C@]3(C)[C@@H]([C@H](C)CCC(=O)O)CC[C@@H]23)[C@@]2(C)CC[C@@H](O)C[C@@H]12 [INT-747, reference compound] |  |  | Concentration in liver ([2]; 0.5 h): 0.711 µM; Concentration in plasma ([2]; 0.5 h): 0.151 µM; Concentration ratio of liver to plasma ([2]; 0.5 h): 5; Concentration in liver ([2]; 3 h): 0.625 µM; Concentration in plasma ([2]; 3 h): 0.063 µM; Concentration ratio of liver to plasma ([2]; 3 h): 10 |
